# Reference: patent publication US20170202939A1, “PERSONALIZED CANCER VACCINES AND METHODS THEREFOR” (Washington University, priority 2014, published 2017)
# No end group written: not given here.
# System: TCRβ clonotypes in CD8+ T cell populations
# Test: TCRβ CDR3 sequencing of neoantigen-specific CD8+ T cells, pre- and post-vaccine
# Parameters: species or system human
# Experimental: Short-term ex-vivo expanded neoantigen-specific T cells were purified to 97-99% purity by cell sorting in a Sony SY3200 BSC (Sony Biotechnology) fitted with a 100 um nozzle, at 30 psi, using 561 nm (585/40) and 642 nm (665/30) lasers and cell pellets were prepared. DNA isolation and TCRβ sequencing was performed by Adaptive Biotechnologies and The Genome Institute at Washington University. Sequencing was performed at either survey (for neoantigen-specific TCRβ reference libraries) or deep (for pre- and post-vaccine CD8+ T cell populations) level (Robins, H., et al., J. Immunol. Methods, 375, 14-19, 2012; Carlson, C. S., et al., Nat. Commun., 4, 2680, 2013). TCRβ V-, D-, J-genes of each CDR3 regions were defined using IMGT (ImMunoGeneTics)/Junctional algorithms and data uploaded into the ImmunoSeq Analyzer (Adaptive Biotechnologies) for analysis. Complete amino acid identity between the reference library and pre- and post-vaccine CD8 samples was required for assigning a TCRβ match. In the reference library, TCRβ clonotypes with frequencies above 0.1% (>100-fold sequencing depth) were set as a threshold for identification of neoantigen-specific TCRβ CDR3 sequences within pre- and post-vaccine CD8+ T cell populations.
# Reference T cell receptor-β (TCRβ) complementarity-determining region 3 (CDR3) sequence libraries (shown schematically in FIG. 42, Tables 7-11) were generated from short-term expanded sorted neoantigen-specific T cells (97-99% dextramer-positive), in Tables 7-11, TCRBV, TCRBD and TCRBJ are shown according to consensus nomenclature and CDR3 sequence for each clonotype indicated. Read counts indicates the number of times a given CDR3 sequence was found in the short term ex-vivo expanded neoantigen population. TCRβ clonotypes with frequencies above 0.1% (>100-fold sequencing depth), in reference library, were set as a threshold for identification of neoantigenspecific TCRβ CDR3 sequences within CD8+ T cell populations isolated from PBMC obtained pre- and post-vaccination. […] Frequencies are shown as percent of total reads. […]
sequence,measurement,setting,value
IILVAVPHV,"TCRβ clonotypes, post-vaccine",CD8+ T cells from PBMC after vaccination,12 clonotypes
same,"TCRβ clonotypes, pre-vaccine",CD8+ T cells from PBMC before vaccination,2 clonotypes
same,TCRβ families represented,post-vaccine clonotypes,8 TCRβ families
